# Results from PMC6522510 (Nature Communications, 2019).
# Like-named read-outs stand apart in the source and are kept apart here.
# How the values were obtained:
# Set-up in all cases: species or system AML cell lines (8); Primary HTS, single concentration about 10 uM, Cell Titer Glo viability; log10 luminescence, per cent inhibition relative to cycloheximide control
# Settings in all cases: 72 h, inhibitor
# CHRF288-11 = system: CHRF288-11
# CMK = system: CMK
# CMS = system: CMS
# M07e = system: M07e
# ML-2 = system: ML-2
# MOLM-13 = system: MOLM-13
# MV4-11 = system: MV4-11
# U937 = system: U937
# [1] = relative to cycloheximide control, log10 luminescence
smiles,measurement,setting,value
"COc1cc(/C=N/Nc2ncnc3[nH]ncc23)ccc1O [SJ000573263-1, U15117/8/1]",CHRF288-11 %inh,CHRF288-11; [1],2.923%
same,CMK %inh,CMK; [1],1.246%
same,CMS %inh,CMS; [1],3.056%
same,M07e %inh,M07e; [1],4.954%
same,ML-2 %inh,ML-2; [1],0.3724%
same,MOLM-13 %inh,MOLM-13; [1],34.62%
same,MV4-11 %inh,MV4-11; [1],32.98%
same,U937 %inh,U937; [1],2.504%
"CCN1CCC(CC(=O)Nc2n[nH]c3nc(-c4cccs4)c(Br)cc23)CC1 [SJ000573264-1, AG201339-025C2]",CHRF288-11 %inh,CHRF288-11; [1],10.8%
same,CMK %inh,CMK; [1],18.01%
same,CMS %inh,CMS; [1],7.013%
same,M07e %inh,M07e; [1],7.209%
same,ML-2 %inh,ML-2; [1],-1.837%
same,MOLM-13 %inh,MOLM-13; [1],8.584%
same,MV4-11 %inh,MV4-11; [1],29.41%
same,U937 %inh,U937; [1],1.142%
"CCOc1ccc2c(-c3ccnc(Nc4cccc(C(F)(F)F)c4)n3)cnn2n1 [SJ000573265-1, U17838/110/3]",CHRF288-11 %inh,CHRF288-11; [1],2.566%
same,CMK %inh,CMK; [1],-2.107%
same,CMS %inh,CMS; [1],0.8077%
same,M07e %inh,M07e; [1],6.84%
same,ML-2 %inh,ML-2; [1],2.429%
same,MOLM-13 %inh,MOLM-13; [1],1.961%
same,MV4-11 %inh,MV4-11; [1],2.829%
same,U937 %inh,U937; [1],-3.226%
"COC(=O)Nc1nc2cc(Oc3ccc(NC(=O)Nc4cccc(Br)c4)cc3)ccc2[nH]1 [SJ000573266-1, T261/62/3]",CHRF288-11 %inh,CHRF288-11; [1],12.69%
same,CMK %inh,CMK; [1],40.21%
same,CMS %inh,CMS; [1],26.73%
same,M07e %inh,M07e; [1],12.78%
same,ML-2 %inh,ML-2; [1],3.598%
same,MOLM-13 %inh,MOLM-13; [1],76.65%
same,MV4-11 %inh,MV4-11; [1],65.99%
same,U937 %inh,U937; [1],79.03%
"COc1cc(/C=N/Nc2ncnc3c2cnn3C(C)C)ccc1O [SJ000573267-1, T237/25/6]",CHRF288-11 %inh,CHRF288-11; 10 µM,29.61%
same,CMK %inh,CMK; 10 µM,41.95%
same,CMS %inh,CMS; 10 µM,9.426%
same,M07e %inh,M07e; 10 µM,6.424%
same,ML-2 %inh,ML-2; 10 µM,8.895%
same,MOLM-13 %inh,MOLM-13; 10 µM,52.9%
same,MV4-11 %inh,MV4-11; 10 µM,40.62%
same,U937 %inh,U937; 10 µM,8.888%
"O=C1NC(=O)C(N2CCc3ccccc32)=C1c1ccc(Cl)cc1 [SJ000573268-1, DH97836-102A1]",CHRF288-11 %inh,CHRF288-11; [1],52.52%
same,CMK %inh,CMK; [1],4.78%
same,CMS %inh,CMS; [1],-3.009%
same,M07e %inh,M07e; [1],-0.7324%
same,ML-2 %inh,ML-2; [1],-0.2823%
same,MOLM-13 %inh,MOLM-13; [1],0.0382%
same,MV4-11 %inh,MV4-11; [1],95.01%
same,U937 %inh,U937; [1],0.6171%
"Cc1ccc(O)cc1Nc1ccnc2cc(-c3ccccn3)ccc12 [SJ000573269-1, R1902/28/3 | HC 206053 | GW440139B | | RTP SMTECH | SID124349934 | TCMDC-138201 | GW440139B |]",CHRF288-11 %inh,CHRF288-11; [1],60.6%
same,CMK %inh,CMK; [1],50.01%
same,CMS %inh,CMS; [1],4.641%
same,M07e %inh,M07e; [1],10.95%
same,ML-2 %inh,ML-2; [1],1.439%
same,MOLM-13 %inh,MOLM-13; [1],20.29%
same,MV4-11 %inh,MV4-11; [1],3.761%
same,U937 %inh,U937; [1],14.95%
"CCOc1nccc2c1nc(-c1nonc1N)n2CC [SJ000573270-1, DW100508-082A1]",CHRF288-11 %inh,CHRF288-11; [1],53.12%
same,CMK %inh,CMK; [1],45.39%
same,CMS %inh,CMS; [1],-3.21%
same,M07e %inh,M07e; [1],-0.5841%
same,ML-2 %inh,ML-2; [1],28.26%
same,MOLM-13 %inh,MOLM-13; [1],-1.635%
same,MV4-11 %inh,MV4-11; [1],-0.5042%
same,U937 %inh,U937; [1],-1.837%
"O=C(Nc1n[nH]c2nc(-c3ccco3)ccc12)C1CC1 [SJ000573271-1, VB100064-193A1]",CHRF288-11 %inh,CHRF288-11; [1],7.062%
same,CMK %inh,CMK; [1],-3.194%
same,CMS %inh,CMS; [1],0.8699%
same,M07e %inh,M07e; [1],-1.707%
same,ML-2 %inh,ML-2; [1],-0.1888%
same,MOLM-13 %inh,MOLM-13; [1],1.202%
same,MV4-11 %inh,MV4-11; [1],-0.2919%
same,U937 %inh,U937; [1],-4.198%
"Cc1ccc(C(=O)NC2CC2)cc1-c1ccc2[nH]ncc2c1 [SJ000573272-1, R8615/48/1]",CHRF288-11 %inh,CHRF288-11; [1],1.821%
same,CMK %inh,CMK; [1],0.7696%
same,CMS %inh,CMS; [1],0.2308%
same,M07e %inh,M07e; [1],0.6909%
same,ML-2 %inh,ML-2; [1],0.7274%
same,MOLM-13 %inh,MOLM-13; [1],-2.369%
same,MV4-11 %inh,MV4-11; [1],1.257%
same,U937 %inh,U937; [1],1.222%
"CCCN1CCC=C(c2ccc(Nc3nc(Nc4ccccc4C(N)=O)c4cc[nH]c4n3)c(C)c2)C1 [SJ000573273-1, U22972/6/1]",CHRF288-11 %inh,CHRF288-11; [1],54.2%
same,CMK %inh,CMK; [1],24.28%
same,CMS %inh,CMS; [1],2.734%
same,M07e %inh,M07e; [1],19.9%
same,ML-2 %inh,ML-2; [1],20.08%
same,MOLM-13 %inh,MOLM-13; [1],49.41%
same,MV4-11 %inh,MV4-11; [1],28.66%
same,U937 %inh,U937; [1],14.36%
"COc1cc(Nc2nccc(-c3cnn4ncccc34)n2)cc(OC)c1 [SJ000573274-1, U16419/146/1]",CHRF288-11 %inh,CHRF288-11; [1],52.5%
same,CMK %inh,CMK; [1],84.54%
same,CMS %inh,CMS; [1],100.2%
same,M07e %inh,M07e; [1],113.9%
same,ML-2 %inh,ML-2; [1],59.09%
same,MOLM-13 %inh,MOLM-13; [1],76.09%
same,MV4-11 %inh,MV4-11; [1],76.66%
same,U937 %inh,U937; [1],80.29%
"CC(C)c1ccc(-c2cc(-c3c[nH]nc3-c3ccccn3)ccn2)cc1 [SJ000573275-1, FVLN/241/7/1]",CHRF288-11 %inh,CHRF288-11; [1],9.433%
same,CMK %inh,CMK; [1],0.9087%
same,CMS %inh,CMS; [1],-0.3112%
same,M07e %inh,M07e; [1],2.317%
same,ML-2 %inh,ML-2; [1],1.414%
same,MOLM-13 %inh,MOLM-13; [1],2.021%
same,MV4-11 %inh,MV4-11; [1],4.536%
same,U937 %inh,U937; [1],0.007743%
"Fc1ccc(-c2cc(-c3c[nH]nc3-c3ccccn3)ccn2)cc1 [SJ000573276-1, FCJB/213/107/1]",CHRF288-11 %inh,CHRF288-11; [1],-1.896%
same,CMK %inh,CMK; [1],15.4%
same,CMS %inh,CMS; [1],-1.917%
same,M07e %inh,M07e; [1],-1.13%
same,ML-2 %inh,ML-2; [1],4.336%
same,MOLM-13 %inh,MOLM-13; [1],10.74%
same,MV4-11 %inh,MV4-11; [1],1.718%
same,U937 %inh,U937; [1],16.91%
"COc1ccc(-c2cc(-c3c[nH]nc3-c3ccccn3)ccn2)cc1 [SJ000573277-1, FFJG/208/167/1]",CHRF288-11 %inh,CHRF288-11; [1],12.63%
same,CMK %inh,CMK; [1],4.937%
same,CMS %inh,CMS; [1],0.9761%
same,M07e %inh,M07e; [1],1.202%
same,ML-2 %inh,ML-2; [1],-0.1507%
same,MOLM-13 %inh,MOLM-13; [1],2.31%
same,MV4-11 %inh,MV4-11; [1],4.2%
same,U937 %inh,U937; [1],7.208%
"Nc1nc(-c2ccccn2)c(-c2ccc3ncccc3n2)s1 [SJ000573278-1, FAMP/256/57/4]",CHRF288-11 %inh,CHRF288-11; [1],2.264%
same,CMK %inh,CMK; [1],2.499%
same,CMS %inh,CMS; [1],0.3275%
same,M07e %inh,M07e; [1],0.9531%
same,ML-2 %inh,ML-2; [1],2.846%
same,MOLM-13 %inh,MOLM-13; [1],2.605%
same,MV4-11 %inh,MV4-11; [1],-2.996%
same,U937 %inh,U937; [1],-0.9094%
"c1ccc(-c2n[nH]cc2-c2ccnc(-c3ccc(OCCN4CCOCC4)cc3)c2)nc1 [SJ000573279-1, FVLN/241/86/2]",CHRF288-11 %inh,CHRF288-11; [1],1.18%
same,CMK %inh,CMK; [1],0.1656%
same,CMS %inh,CMS; [1],-2.932%
same,M07e %inh,M07e; [1],-4.621%
same,ML-2 %inh,ML-2; [1],-0.6736%
same,MOLM-13 %inh,MOLM-13; [1],4.641%
same,MV4-11 %inh,MV4-11; [1],1.132%
same,U937 %inh,U937; [1],-1.579%
"CN(c1ccc(NC(=O)Nc2ccc(OC(F)(F)F)cc2)cc1)c1ccnc(Nc2cccc(S(N)(=O)=O)c2)n1 [SJ000573281-1, U17983/20/3]",CHRF288-11 %inh,CHRF288-11; [1],54%
same,CMK %inh,CMK; [1],57.59%
same,CMS %inh,CMS; [1],4.771%
same,M07e %inh,M07e; [1],21.34%
same,ML-2 %inh,ML-2; [1],11.59%
same,MOLM-13 %inh,MOLM-13; [1],77.33%
same,MV4-11 %inh,MV4-11; [1],82.54%
same,U937 %inh,U937; [1],20.62%
